Assay results from paper PMC2782669 (Journal of the American Chemical Society, 2009).
“Also recorded” adds a separate entry of the source. Where two headings read alike, the source gives them in different places.

Tests used:
[1] = system: B. subtilis HB5600 (dhbA∷spc); assay: Disc diffusion growth promotion assay, HB5600; assay type: cell-based; conditions: in the presence of 2,2′-dipyridyl
[2] = system: esterase BesA; assay: BesA-catalyzed hydrolysis of apo siderophores followed by HPLC; assay type: biochemical, B. cereus ATCC 14579; conditions: 72 nM enzyme, 64 μM siderophore
[3] = system: B. subtilis ATCC 6051; conditions: cited from earlier work
[4] = system: esterase Fes; conditions: cited from earlier work
[5] = system: B. subtilis HB5625 (feuA∷spc dhbA∷mls); assay: Disc diffusion growth promotion assay, HB5625; assay type: cell-based; conditions: in the presence of 2,2′-dipyridyl
[6] = system: esterase Fes; assay: Fes-catalyzed hydrolysis of siderophores; assay type: biochemical; conditions: Fes from Shigella flexneri, 64 μM substrates, 72 nM enzymes, HPLC
[7] = Strong acid hydrolysis followed by HPLC; assay type: physicochemical; conditions: 1 mg/mL, 6 M HCl, stirred 12 h (overnight)
[8] = cited from earlier work; for log K3: [LH2]^4-; for log K4: [LH3]^3-; for log K5: [LH4]^2-; for log K6: [LH5]^-; for log K2: [LH]^5-; for log K1: [L]^6-; for Σlog K1-6: sum of the stepwise protonation constants
[9] = cited from earlier work; for log β110: [FeL]^3-; for pM(Fe^III): pH 7.4, 1 μM total iron, 10 μM total ligand
[10] = Potentiometric titration, ligand protonation constants; assay type: physicochemical
[11] = assay type: physicochemical
[12] = molecular target: substrate-binding protein FeuA (Bacillus subtilis, UniProt P40409); assay: Fluorescence quenching binding assay with FeuA-His6; parameters: species or system B. subtilis 168
Sequence of substrate-binding protein FeuA (P40409 21-317): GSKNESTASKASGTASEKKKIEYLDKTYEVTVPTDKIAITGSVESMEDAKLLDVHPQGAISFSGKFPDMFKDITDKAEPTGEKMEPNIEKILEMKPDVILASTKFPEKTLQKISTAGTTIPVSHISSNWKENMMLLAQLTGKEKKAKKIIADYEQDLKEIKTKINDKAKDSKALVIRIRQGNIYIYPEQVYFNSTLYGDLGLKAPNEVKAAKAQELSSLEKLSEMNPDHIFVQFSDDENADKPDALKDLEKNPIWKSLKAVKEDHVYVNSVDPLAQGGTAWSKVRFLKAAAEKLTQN

[13] = system: esterase BesA; assay: BesA-catalyzed hydrolysis of ferric complexes followed by UV-Vis spectroscopy; assay type: biochemical, B. cereus ATCC 14579; conditions: 100 μM substrate, 1 μM enzyme, 75 mM HEPES pH 7.5, UV-Vis over 12 h
[14] = system: E. coli; conditions: incorporated through FepA; cited from earlier work
[15] = system: B. subtilis ATCC 6051; assay: 55Fe-siderophore transport assay; assay type: cell-based; conditions: 37 °C, iron-limited medium

SMILES: O=C(N[C@@H]1COC(=O)[C@H](NC(=O)c2cccc(O)c2O)COC(=O)[C@H](NC(=O)c2cccc(O)c2O)COC1=O)c1cccc(O)c1O (single isomer, unassigned; ent d) [D-Ent, D-enterobactin]
- growth promotion of B. subtilis HB5600 (in words) [1]: no significant zone of growth stimulation
- hydrolysis of the apo siderophore by BesA [2]: no effect; also recorded: did not affect
- transport properties in B. subtilis [3]: same transport properties as Ent
- hydrolysis by Fes [4]: neither apo-D-Ent nor [Fe^III(D-Ent)]^3- are hydrolyzed by Fes

SMILES: C[C@H]1OC(=O)[C@@H](NC(=O)CNC(=O)c2cccc(O)c2O)[C@@H](C)OC(=O)[C@@H](NC(=O)CNC(=O)c2cccc(O)c2O)[C@@H](C)OC(=O)[C@H]1NC(=O)CNC(=O)c1cccc(O)c1O [BB, bacillibactin]
- growth promotion of B. subtilis HB5600 (in words) [1]: promoted growth
- growth stimulation of B. subtilis HB5625, feuA deleted (in words) [5]: prevented growth stimulation
- hydrolysis of the apo siderophore by BesA [2]: hydrolyzed sequentially
- hydrolysis by Fes [6]: did not react
- resistance to acid hydrolysis [7]: remained essentially intact
- log K3 [8]: 12.1
- log K4 [8]: 8.43
- log K5 [8]: 7.43
- log K6 [8]: 6.77
- log K2 [8]: 12.1
- log K1 [8]: 12.1
- Σlog K1-6 [8]: 58.93
- log β110 [9]: 47.6
- pM(Fe^III) [9]: 33.1

SMILES: O=C(CNC(=O)c1cccc(O)c1O)N[C@@H]1COC(=O)[C@H](NC(=O)CNC(=O)c2cccc(O)c2O)COC(=O)[C@H](NC(=O)CNC(=O)c2cccc(O)c2O)COC1=O [D-SGC, N,N′,N″-Tris[2,3-dihydroxybenzoyl-glycinyl]cyclotri-D-seryl trilactone]
- growth promotion of B. subtilis HB5600 (in words) [1]: no significant zone of growth stimulation
- hydrolysis of the apo siderophore by BesA [2]: no effect; also recorded: did not affect
- hydrolysis by Fes [6]: did not react

SMILES: O=C(N[C@H]1COC(=O)[C@@H](NC(=O)c2cccc(O)c2O)COC(=O)[C@@H](NC(=O)c2cccc(O)c2O)COC1=O)c1cccc(O)c1O [Ent, Enterobactin]
- growth promotion of B. subtilis HB5600 (in words) [1]: promoted growth
- growth stimulation of B. subtilis HB5625, feuA deleted (in words) [5]: prevented growth stimulation
- hydrolysis of the apo siderophore by BesA [2]: hydrolyzed sequentially
- resistance to acid hydrolysis [7]: completely degraded
- log K3 [8]: 12.1
- log K4 [8]: 8.6
- log K5 [8]: 7.5
- log K6 [8]: 6.0
- log K2 [8]: 12.1
- log K1 [8]: 12.1
- Σlog K1-6 [8]: 58.4
- log β110 [9]: 49
- pM(Fe^III) [9]: 34.3
- hydrolysis by Fes [4]: subject to enzymatic sequential hydrolysis

SMILES: O=C(CNC(=O)c1cccc(O)c1O)N[C@H]1COC(=O)[C@@H](NC(=O)CNC(=O)c2cccc(O)c2O)COC(=O)[C@@H](NC(=O)CNC(=O)c2cccc(O)c2O)COC1=O [SGC, SERglyCAM]
- log K4 ([10]; [LH3]^3-, 0.1 M KCl, 25 °C): 8.37(3)
- log K5 ([10]; [LH4]^2-, 0.1 M KCl, 25 °C): 7.54(2)
- log K6 ([10]; [LH5]^-, 0.1 M KCl, 25 °C): 6.68(3)
- Σlog K1-6 ([10]; sum of the stepwise protonation constants): 58.89
- log β110 ([11]; [FeL]^3-, competition with EDTA, 0.1 M KCl, 25 °C, pH 5 to 7.5): 44.1(2)
- pM(Fe^III) ([11]; pH 7.4, 1 μM total iron, 10 μM total ligand): 29.6
- growth promotion of B. subtilis HB5600 (in words) [1]: promoted growth
- growth stimulation of B. subtilis HB5625, feuA deleted (in words) [5]: prevented growth stimulation
- hydrolysis of the apo siderophore by BesA [2]: hydrolyzed sequentially

SMILES: C[C@H]1OC(=O)[C@@H](NC(=O)CNC(=O)c2cccc([O-])c2[O-])[C@@H](C)OC(=O)[C@@H](NC(=O)CNC(=O)c2cccc([O-])c2[O-])[C@@H](C)OC(=O)[C@H]1NC(=O)CNC(=O)c1cccc([O-])c1[O-].[Fe+3] [[Fe^III(BB)]^3-]
- Kd [12]: 15 nM
- reaction of the ferric complex with BesA [13]: the UV-Vis spectra changed

SMILES: O=C(N[C@@H]1COC(=O)[C@H](NC(=O)c2cccc([O-])c2[O-])COC(=O)[C@H](NC(=O)c2cccc([O-])c2[O-])COC1=O)c1cccc([O-])c1[O-].[Fe+3] [[Fe^III(D-Ent)]^3-]
- Kd [12]: 10 nM
- reaction of the ferric complex with BesA [13]: No change in the absorption spectra
- hydrolysis by Fes [4]: neither apo-D-Ent nor [Fe^III(D-Ent)]^3- are hydrolyzed by Fes
- growth promotion of E. coli [14]: does not promote growth

SMILES: O=C(N[C@H]1COC(=O)[C@@H](NC(=O)c2cccc([O-])c2[O-])COC(=O)[C@@H](NC(=O)c2cccc([O-])c2[O-])COC1=O)c1cccc([O-])c1[O-].[Fe+3] [[Fe^III(Ent)]^3-]
- Kd [12]: 19 nM
- reaction of the ferric complex with BesA [13]: the UV-Vis spectra changed
- hydrolysis by Fes [4]: subject to enzymatic sequential hydrolysis

SMILES: O=C(CNC(=O)c1cccc([O-])c1[O-])N[C@H]1COC(=O)[C@@H](NC(=O)CNC(=O)c2cccc([O-])c2[O-])COC(=O)[C@@H](NC(=O)CNC(=O)c2cccc([O-])c2[O-])COC1=O.[Fe+3] [[Fe^III(SGC)]^3-]
- Kd [12]: 52 nM
- iron transport into B. subtilis [15]: transported into B. subtilis at levels similar to that of [Fe^III(BB)]^3-
- reaction of the ferric complex with BesA [13]: the UV-Vis spectra changed
